Read-outs that look alike come from different tables or passages of the source. Marks after values point to notes of the source that are not given here.
Legend:
P. falciparum Dd2 = assay: P. falciparum viability assay (SYBR green), Dd2; type: cell-based; details: Plasmodium falciparum, DD2, 72 h, read-out: P. falciparum parental EC50 (SD) Dd2
Experimental: (§1) These assays were performed as previously described.[16] P. falciparum 3D7 parasites and resistant lines Dd2, W2mef, 7G8, and artemisinin‐resistant Cambodian isolate (Cam3.I (2539T)), and P. knowlesi YH1, were cultured in human O^+ erythrocytes (RBCs) (Australian Red Cross Blood Service), in RPMI‐HEPES culture medium (pH 7.4, 50 μg/mL hypoxanthine, 25 mM NaHCO3, 20 μg/mL gentamicin, 0.5 % Albumax II (GibcoBRL)) (Thermo Fisher Scientific) and maintained in an atmosphere of 1 % O2, 4 % CO2 and 95 % N2. Parasites were synchronised with 5 % (w/v) sorbitol (Sigma‐Aldrich) treatments for ring stages. Growth assays for measuring drug inhibition of in‐cycle, ring to schizont stage parasites have been described previously. Parasites were grown in 1 % haematocrit, at 1 % and 2 % parasitaemia for P. falciparum and P. knowlesi respectively. […] Parasitaemia was measured using a SYBR DNA staining assay on a fluorometer.[33] After the incubation period, supernatants were removed and well contents were resuspended in PBS.

P. falciparum CAM3.1 = assay: Multidrug-resistant parasite viability assay (SYBR green), CAM3.1; type: cell-based; details: Plasmodium falciparum, 72 h, read-out: multidrug resistant P. falciparum strains EC50 (SD) CAM3.1
Experimental: as §1

[1] = test system: P. falciparum Dd2 parental strain; assay: PfATP4 drug resistant parasite viability assay (LDH), Dd2 parental; type: cell-based; details: Plasmodium falciparum, DD2, 72 h, read-out: Dd2^parental EC50 (SD)
Experimental: (§2) These assays were performed according to a previously described protocol.[16] Briefly, P. falciparum Dd2 strains treated with compound were incubated for 72 h at 37 °C. After incubating for 72 h, plates were frozen at −80 °C and then thawed at room temperature for at least 2 h. LDH activity, a surrogate for parasite growth was measured by the addition of the Malstst reagent mix, followed by incubation for 30 min and absorbance read using a ClarioStar Microplate reader at 650 nm. Values were normalized to DMSO control as a percentage and EC50 and dose response curves generated using GraphPad Prism.

[2] = test system: P. falciparum 3D7 parasites; assay: P. falciparum viability assay (SYBR green), 3D7; type: cell-based; details: Plasmodium falciparum, read-out: P. falciparum parental EC50 (SD) 3D7
Experimental: These assays were performed as previously described.[16] […] Parasites were synchronised with 5 % (w/v) sorbitol (Sigma‐Aldrich) treatments for ring stages. […] Parasites were grown in 1 % haematocrit, at 1 % and 2 % parasitaemia for P. falciparum and P. knowlesi respectively. […] Parasitaemia was measured using a SYBR DNA staining assay on a fluorometer.[33] After the incubation period, supernatants were removed and well contents were resuspended in PBS.

eLogD shake-flask method = type: physicochemical
Source text: Human liver microsome stability, rat hepatocyte stability, aqueous solubility and eLogD are platform assays conducted by TCG Lifesciences and undertaken using previously described protocols.[10]

[3] = test system: P. falciparum Dd2 strain with 2.8-fold amplification in PfATP4; assay: 'compound 49' resistant parasite viability assay (LDH), Dd2 2.8 CNV; type: cell-based; details: Plasmodium falciparum, DD2, 72 h, read-out: Dd2^2.8 CNV EC50 (SD)
Experimental: as §2

P. falciparum 7G8 = assay: Multidrug-resistant parasite viability assay (SYBR green), 7G8; type: cell-based; details: Plasmodium falciparum, 7G8, 72 h, read-out: multidrug resistant P. falciparum strains EC50 (SD) 7G8
Experimental: as §1

SMILES | EC50 (P. falciparum Dd2) | EC50 (P. falciparum CAM3.1) | EC50 [1] | EC50 ([2]; 3D7, SYBR green, 72 h) | eLogD (eLogD shake-flask method) | EC50 [3] | EC50 (P. falciparum 7G8) | EC50 ([2]; 3D7, 72 h)
CN1C(=O)c2ccc(Cl)cc2NC1(C)C(=O)Nc1cncc(Cl)c1 (stereo not drawn) [Compound 14, 7‐Chloro‐N‐(5‐chloro‐3‐pyridyl)‐2,3‐dimethyl‐4‐oxo‐1H‐quinazoline‐2‐carboxamide] | 19 nM | 21 nM | 50 nM | 16 nM | 3.2^[d] | 61 nM | 43 nM | 
CN1C(=O)c2ccc(-n3cccn3)cc2NC1(C)C(=O)Nc1cncc(Cl)c1 (stereo not drawn) [Compound 33, N‐(5‐Chloropyridin‐3‐yl)‐2,3‐dimethyl‐4‐oxo‐7‐(1H‐pyrazol‐1‐yl)‐1,2,3,4‐tetrahydroquinazoline‐2‐carboxamide] | 46 nM | 60 nM | 73 nM |  | 3.2^[d] | 124 nM | 101 nM | 45 nM
COc1cc(F)c2c(c1)NC(C)(C(=O)Nc1cncc(Cl)c1)N(C)C2=O (stereo not drawn) [Compound 36, N‐(5‐Chloropyridin‐3‐yl)‐5‐fluoro‐7‐methoxy‐2,3‐dimethyl‐4‐oxo‐1,2,3,4‐tetrahydroquinazoline‐2‐carboxamide] | 13 nM | 14 nM | 32 nM | 10 nM | 2.6^[d] | 56 nM | 31 nM | 
